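Briefly, cells in 96-well plates were exposed to five compound concentrations for 48 h, and endpoints were estimated by linear interpolation. TGI denotes the concentration required for complete inhibition of growth.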
Experiments:
Test in all cases: growth of human tumour cells (NCI), 48 h
[1] = tested on: DMS 114 small cell lung
[2] = tested on: M19-MEL melanoma
[3] = tested on: RXF-631 renal

Compound | TGI [1] [µM] | TGI [2] [µM] | TGI [3] [µM]
CCOC(=O)/C(=C/c1ccccc1)N(CC)CC | > 100 | > 100 | 
CC1(C)OC2C(O1)[C@H]1OC(C(Cl)(Cl)Cl)=N[C@H]1C(I)[C@H]2N1C(=O)c2ccccc2C1=O (some centres undefined) | > 100 | > 100 | 
O=C(c1nc2ccc(Cl)cc2[nH]c1=O)C(O)c1ccco1 (centres undefined) | > 100 | > 100 | > 100
CCOc1cc2cnc3c4cc(OC)c(OC)cc4ccc3c2cc1OC | > 100 | > 100 | 
CC(C)C1COC(C(C)(C)C2=N[C@@H](C(C)C)CO2)=N1 (some centres undefined) | > 100 | > 100 | > 100
COc1cc(CO)cc2c1[nH]c1ccccc12 | > 25 | > 25 | 
NC(=S)N/N=C(/CCN1CCCC1)CC(C1=C(O)C2=CCCCC2OC1=O)c1ccccc1 (centres undefined) |  | > 100 | 
N#CC(C#N)=C(N)/C(C#N)=C/c1ccc(O)c(O)c1 | > 100 | > 100 | 
O=C(c1nc2ccc(Cl)cc2[nH]c1=O)C(O)c1cccc([N+](=O)[O-])c1 (centres undefined) | 17.6 | > 100 | 
COc1ccc(/C=N/NC(=O)CSc2nc(-c3ccccc3)c(-c3ccccc3)[nH]2)cc1OC | > 100 | 35.3 | 
COc1ccc([C@H]2[C@@H]3CCc4ccccc4C3=NN2C(N)=S)cc1OC | 93.7 | > 100 | 
CC(=O)NC(CCCCN(Cc1ccccc1)C(=O)N(C)N=O)C(=O)NCc1ccccc1 (centres undefined) | > 100 | > 100 | > 100
CC(=O)Nc1ccc(S(=O)(=O)N/N=C(\C)CN2C(=O)c3ccccc3C2=O)cc1 |  | > 100 | 
N#CC(C(=S)Nc1ccccc1)=C1Nc2ccccc2N1 | > 10 | > 10 | 
FC(F)(F)c1nc2c(ccc3[nH]c4c(-c5ccccc5)nccc4c32)[nH]1 | > 61 | > 100 | > 100
CC(=O)OCc1ncccc1C(OC(C)=O)OC(C)=O | > 100 | > 100 | 
CN(C)CCSC(=Nc1ccccc1)n1cccc1 | 80.8 | > 100 | 
CC1=C(c2ccccc2)CON(c2ccccc2)C1 | > 100 | > 100 | 77.4
C[C@@H]1C[C@@H]2C(=O)N(c3ccccc3)C(=O)[C@@H]2c2[nH]c3ccc(Br)cc3c21 | > 100 | > 100 | > 100
O[C@]12c3ccccc3C1CCCC2N1CCOCC1 (some centres undefined) | > 100 | > 100 | 
